The record followed here is US20080279795A1, “Tertiary Amine Functional Complex Polyester Polymers And Methods Of Production And Use” (priority 2003, published 2008).

The nature of data set [1]: Rubine Dye test for substantivity on hair (chromameter). The settings on record: Example 3, second matrix of prototypes. An excerpt:
The substrate (i.e., surface to which they are applied) in cosmetic applications is either the hair or the skin. […] Cationic conditioning agents act by binding a moiety, typically a long chain alkyl group, to the hair or skin by electrostatic attraction (ionic bonding), but also, weaker forces such as dipole-dipole interactions, and furthermore van der Waals forces can assist in substrate binding. Substantivity is a term used to describe how well a conditioning agent binds to the surface of the substrate. Substantivity of hair conditioning agents is often determined by performing the Rubine Dye test. The Rubine Dye test is designed to show how much of the conditioning ingredient adheres to the hair. Results from the Rubine Dye test are normally evaluated by comparison to some known standard or benchmark.
The polyesteramine prototypes were tested internally for substantivity using the Rubine Dye test protocol. In the Rubine Dye test, the prototypes were benchmarked against Dehyquart® L-80 (dicocoylethyl hydroxyethylmonium methosulfate (and) propylene glycol), a commercial ester quaternary. The materials and equipment used in performing the Rubine Dye analysis were:
The protocol used to perform the Rubine Dye analysis on polyesteramine prototypes and Dehyquart® L-80 and the compositions of ingredients used is described below.
First, a stock dye solution was prepared using the following formula and preparation procedure: […]
In a small vessel, deionized water, Lumicrease Bordeaux 3LR Powder, and glacial acetic acid were agitated at about 20 to about 25° C. until a solution was obtained. […]
From about 0.95 to about 1.05 grams of hair was weighed out and glued onto pre-cut plastic sheets (1.5″×1.5″) using a hot glue gun to attach the swatches to the sheets. […] Quantitative comparisons of dye up-take and relative substantivity of each polymer were performed using a Minolta chromameter. Additionally, dye up-take was evaluated qualitatively by taking photographs of the hair swatches using a digital camera. […]

Data set [2] deals with EpiOccular® model made of human-derived epidermal keratinocytes cultured to make them similar to human corneal tissue. It counts as cell-based. On the procedure: Irritancy to the eyes and to the skin was tested in-vitro using the EpiDerm® and EpiOccular® test models. EpiDerm® is a human test model of skin made up of normal epidermal keratinocytes. The EpiOccular® model is made of human-derived epidermal keratinocytes cultured to make them similar to human corneal tissue. In each of the tests, tissue samples are treated with the test article for various exposure times. Following treatment, the viability of the tissue is determined using MTT uptake and conversion, and the absorbance of the sample is measured at 540 nanometers (nm) wavelength using a reference wavelength of 690 nm. The viability is expressed as a percentage of control values. The mean percentage viability for each time point is used to calculate the ET50, which represents the time at which the tissue viability is reduced 50% compared to control tissue. […] Typically, higher molecular weight results in lower eye and skin irritancy.

Each structure is given as a SMILES string.

For the molecule `CCCCCCCCCCCCCCCCCC(=O)NCCCN(C)C` [Lexamine ® S-13, stearamidopropyldimethylamine], in data set [1] (higher a = more deposition), the a-scale value worked out at 19.16. In data set [1] (lower L = more deposition), the L-scale value is on record as 65.15. Further, the b-scale value in data set [1] (lower b = more deposition) is recorded as 8.57.
Turning to `CCCCCCCCCCCCCCCC[N+](C)(C)C.[Cl-]` [cetrimonium chloride], the “EpiOcular ® ET50” value in data set [2] (exposure times 16, 64 and […], time at which tissue viability is reduced 50% vs control) worked out at 116.9 min. The “irritancy classification, eyes” value in data set [2] (from EpiOcular ET50) was “more irritating”.
